# Laboratory results published in patent US20260102407A1, “TREATMENT METHODS” (priority 2020, published 2026).
# Test: BT2 formulation analysis by RRLC-MS/MS and LC/MS (stability)
# Type: physicochemical
# Conditions: for discrepancy in BT2 content: 6 weeks storage at 22° C.
# Protocol: BT2 formulation analysis using RRLC-MS/MS. A rapid resolution liquid chromatography/tandem mass spectrometry (RRLC-MS/MS) method was developed under GLP by Iris Pharma using an Agilent 1200 Triple Quad G6410B to determine BT2 content in heat-treated or non-heat treated BT2 formulations at 1 week (T1 week) or 6 weeks (T6 weeks) after preparation at room temperature. The formulations were heat (H)-treated (tubes placed in a 100° C. water bath for 10 min) or non-heat treated sonicated formulations of BT2 in saline containing 0.5% Tween 80 and 0.01% DMSO). Standard curves were constructed with 8 concentrations between the lower limit of quantification (LLOQ) and the upper limit of quantification (ULOQ). Evaluations were performed on 3 preparations at the same dilution. Chromatograms were integrated using MassHunter software. For BT2 content analysis (T1 week and T6 weeks), calculation of mean, SD, CV (%) and bias (%) were performed as follows: For T1, the theoretical concentration (i.e. the weighed/formulated material supplied) was used as reference to calculate the bias (%) of each preparation containing the test sample:
# Standard curves were fitted using Excel® version 2011. For each run, bias on back-calculated concentration of the standard curve and QC was determined, with back-calculated concentrations of the calibration standards being set within ±15% of the theoretical value, except for the LLOQ for which it was set within ±20%. At least 75% of the calibration standards, with a minimum of six, must have had to fulfil this criterion and the coefficient of determination (r^2) was set at ≥0.98.
# BT2 formulation analysis using liquid chromatography mass spectrometry (LC/MS). DMSO (100 μl) and samples (˜50 μl) were combined along with formic acid (1 μl). These solutions (10 μl) were further diluted with H2O:CH3CN (1:1) 0.1% formic acid (90 μl) for LC/MS analysis. Samples were separated by UPLC using an HPG-3400RS UPLC pump, autosampler and column compartment system (Thermo Scientific, CA). Samples (0.1 μl) were loaded onto a Hypersil Gold aQ column (2.1×50 mm) containing 1.9μ media (Thermo Scientific). Compounds were eluted using a linear gradient of H2O:CH3CN with A containing H2O (0.1% formic acid) and B containing H2O:CH3CN (1:4, 0.1% formic acid). The gradient was: T=0 min 2% B, T=20 min 75% B, T=23 min 95% B, T=25 min, 95% B, T=25.2 min 2% B, T=30 min, 2% at 200 μl/min over 30 min. The column oven was heated to 45° C. Positive ions were generated by electrospray and the QExactive Plus mass spectrometer (Thermo Fisher, Bremen, Germany) operated in data dependent acquisition mode (DDA). The heated electrospray source (HESI) was used with a high voltage 3.8 kV applied; a vaporizer temp of 250° C.; sheath gas 20; aux gas 5 and the heated capillary set to T=290° C. […]
structure (smiles),measurement,setting,value
"CCOC(=O)Nc1ccc2c(c1)C(=O)N(CC)c1ccccc1O2 [BT2, (10-ethyl-11-oxo-10,11-dihydro-dibenzo[b,f][1,4]oxazepin-2-yl)-carbamic acid ethyl ester]",stability of formulation after autoclaving,"autoclaved (121° C., 15 psi, 20 min), 4 months storage at 22° C., LC/MS",remained stable
same,discrepancy in BT2 content,"heat-treated formulation (100° C. for 10 min), RRLC-MS/MS",1%
same,degradation of stored formulation,"heat-treated or not, storage up to 16 months, RRLC-MS/MS",no loss in biological efficacy or degradation
same,discrepancy in BT2 content,"non-heat treated formulation, RRLC-MS/MS",0.2%
